Measured values: ChEMBL document CHEMBL6087397, “H2S-releasing oridonin derivatives with improved antitumor activity by inhibiting the PI3K/AKT pathway” (Bioorg Med Chem, 2024)
Activity calls are given as the source filed them. No cut-off for these calls is given here.

Key:
[1] = Toxicity in female BALB/c mouse xenografted with mouse 4T1 cells assessed as morphological change in liver at 10 mg/kg, ip administered every 2 days by H and E staining based analysis; format: organism-based; conditions: in vivo, 48 h
PANC-1 = assay: Antiproliferative activity against human PANC-1 cells assessed as inhibition of cell proliferation incubated for 48 hrs by CCK-8 assay; format: functional, cell-based; conditions: PANC-1, 48 h
MCF7 [2] = assay: Induction of apoptosis in human MCF7 cells assessed as upregulation of Bax/Bcl-2 ratio at 1.25 to 5.0 uM incubated for 48 hrs by Western blotting analysis; format: functional, cell-based; conditions: dose 1.25-5 µM
MIA PaCa-2 [3] = assay: Induction of apoptosis in human MIA PaCa-2 cells assessed as upregulation of cleaved caspase-3 expression at 1.25 to 5.0 uM incubated for 48 hrs by Western blotting analysis; format: functional, cell-based; conditions: dose 1.25-5 µM
MIA PaCa-2 [4] = assay: Induction of apoptosis in human MIA PaCa-2 cells assessed as upregulation of cleaved caspase-9 expression at 1.25 to 5.0 uM incubated for 48 hrs by Western blotting analysis; format: functional, cell-based; conditions: dose 1.25-5 µM
[5] = Toxicity in female BALB/c mouse xenografted with mouse 4T1 cells assessed as morphological change in kidney at 10 mg/kg, ip administered every 2 days by H and E staining based analysis; format: organism-based; conditions: in vivo, 48 h
MCF7 [6] = assay: Antiproliferative activity against human MCF7 cells assessed as inhibition of cell proliferation incubated for 48 hrs by CCK-8 assay; format: functional, cell-based; conditions: MCF7, 48 h
MIA PaCa-2 [7] = assay: Induction of apoptosis in human MIA PaCa-2 cells assessed as upregulation of Cyt-C expression at 1.25 to 5.0 uM incubated for 48 hrs by Western blotting analysis; format: functional, cell-based; conditions: dose 1.25-5 µM
MCF7 [8] = assay: Induction of apoptosis in human MCF7 cells assessed as increase in nuclear fragmentation at 2.5 uM incubated for 48 hrs by Hoechst 33342 staining based fluorescence microscopic analysis; format: functional, cell-based
MIA PaCa-2 [9] = assay: Induction of apoptosis in human MIA PaCa-2 cells assessed as increase in Bax/Bcl-2 ratio at 1.25 to 5.0 uM incubated for 48 hrs by Western blotting analysis; format: functional, cell-based; conditions: dose 1.25-5 µM
A549 = assay: Antiproliferative activity against human A549 cells assessed as inhibition of cell proliferation incubated for 48 hrs by CCK-8 assay; format: functional, cell-based; conditions: A549, 48 h
MCF7 [10] = assay: Induction of apoptosis in human MCF7 cells assessed as increase in Cyt-C level at 1.25 to 5.0 uM incubated for 48 hrs by Western blotting analysis; format: functional, cell-based; conditions: dose 1.25-5 µM
MCF7 [11] = assay: Induction of apoptosis in human MCF7 cells assessed as late apoptotic cells at 20 uM incubated for 48 hrs by Annexin V-FITC/PI staining based flow cytometric analysis (reference value: 20.2%); format: functional
[12] = Toxicity in female BALB/c mouse xenografted with mouse 4T1 cells assessed as morphological change in lung at 10 mg/kg, ip administered every 2 days by H and E staining based analysis; format: organism-based; conditions: in vivo, 48 h
MCF7 [13] = assay: Induction of cell cycle arrest in human MCF7 cells assessed as increase in accumulation of cells at G2/M phase at 5 uM incubated for 48 hrs by PI staining based flow cytometric analysis (reference value: 6.7%); format: functional
MIA PaCa-2 [14] = assay: Inhibition of cell migration in human MIA PaCa-2 cells assessed as wider scratch areas at 0.5 to 1.0 uM incubated for 48 hrs by scratch assay; format: functional, cell-based; conditions: dose 0.5-1 µM
[15] = Toxicity in female BALB/c mouse xenografted with mouse 4T1 cells assessed as change in body weight at 10 mg/kg, ip administered every 2 days; format: organism-based; conditions: in vivo, 48 h
MCF7 [16] = assay: Induction of mitochondrial dysfunction in human MCF7 cells assessed as decrease in ATP level incubated for 48 hrs by ATP assay kit; format: functional, cell-based; conditions: dose 2.5-10 µM
MIA PaCa-2 [17] = assay: Induction of mitochondrial dysfunction in human MIA PaCa-2 cells assessed as decrease in MMP level at 2.5 to 5.0 uM by measuring green fluorescence incubated for 48 hrs by JC-1 staining based flow cytometric analysis; format: functional, cell-based; conditions: dose 2.5-5 µM
MCF7 [18] = assay: Induction of apoptosis in human MCF7 cells assessed as increase in cleaved PARP level at 1.25 to 5.0 uM incubated for 48 hrs by Western blotting analysis; format: functional, cell-based; conditions: dose 1.25-5 µM
MIA PaCa-2 [19] = assay: Induction of apoptosis in human MIA PaCa-2 cells assessed as increase in fluorescence intensity at 2.5 uM incubated for 48 hrs by Hoechst 33342 staining based fluorescence microscopic analysis; format: functional, cell-based
4T1 = assay: Antitumor activity against mouse 4T1 cells xenografted in female BALB/c mouse assessed as reduction in tumor volume at 10 mg/kg, ip administered every 2 days; format: functional, organism-based
MCF7 [20] = assay: Induction of cell cycle arrest in human MCF7 cells assessed as increase in accumulation of cells at G2/M phase at 10 uM incubated for 48 hrs by PI staining based flow cytometric analysis (reference value: 6.7%); format: functional
MCF7 [21] = assay: Induction of apoptosis in human MCF7 cells assessed as increase in cleaved caspase-3 level at 1.25 to 5.0 uM incubated for 48 hrs by Western blotting analysis; format: functional, cell-based; conditions: dose 1.25-5 µM
MIA PaCa-2 [22] = assay: Induction of mitochondrial dysfunction in human MIA PaCa-2 cells assessed as decrease in ATP level incubated for 48 hrs by ATP assay kit; format: functional, cell-based; conditions: dose 2.5-10 µM
MIA PaCa-2 [23] = assay: Induction of apoptosis in human MIA PaCa-2 cells assessed as early apoptotic cells at 10 uM incubated for 48 hrs by Annexin V-FITC/PI staining based flow cytometric analysis (reference value: 7.3%); format: functional
MIA PaCa-2 [24] = assay: Inhibition of PI3K expression in human MIA PaCa-2 cells at 1.25 to 5.0 uM incubated for 48 hrs by Western blotting analysis; format: functional, cell-based; conditions: dose 1.25-5 µM
MIA PaCa-2 [25] = assay: Antiproliferative activity against human MIA PaCa-2 cells assessed as inhibition of cell proliferation incubated for 48 hrs by CCK-8 assay; format: functional, cell-based; conditions: MIA PaCa-2, 48 h
MIA PaCa-2 [26] = assay: Inhibition of AKT expression in human MIA PaCa-2 cells at 1.25 to 5.0 uM incubated for 48 hrs by Western blotting analysis; format: functional, cell-based; conditions: dose 1.25-5 µM
MCF7 [27] = assay: Induction of apoptosis in human MCF7 cells assessed as early apoptotic cells at 10 uM incubated for 48 hrs by Annexin V-FITC/PI staining based flow cytometric analysis (reference value: 20.2%); format: functional
[28] = Toxicity in female BALB/c mouse xenografted with mouse 4T1 cells assessed as morphological change in spleen at 10 mg/kg, ip administered every 2 days by H and E staining based analysis; format: organism-based; conditions: in vivo, 48 h
MCF7 [29] = assay: Inhibition of cell migration in human MCF7 cells assessed as wider scratch areas incubated for 48 hrs by scratch assay; format: functional, cell-based; conditions: dose 0.5-1 µM
MIA PaCa-2 [30] = assay: Induction of cell cycle arrest in human MIA PaCa-2 cells assessed as increase in accumulation of cells at S phase at 5.0 uM incubated for 48 hrs by PI staining based flow cytometric analysis (reference value: 9.38%); format: functional
[31] = Toxicity in female BALB/c mouse xenografted with mouse 4T1 cells assessed as morphological change in heart at 10 mg/kg, ip administered every 2 days by H and E staining based analysis; format: organism-based; conditions: in vivo, 48 h
MIA PaCa-2 [32] = assay: Inhibition of colony formation in human MIA PaCa-2 cells assessed as reduction in number of colonies at 0.5 to 1.0 uM incubated for […] by crystal violet staining based microscopic analysis; format: functional, cell-based; conditions: dose 0.5-1 µM

With C=C1C(=O)[C@]23[C@H](OC(=O)c4ccc(N=C=S)cc4)[C@H]1CC[C@H]2[C@@]12CO[C@]3(O)[C@@H](O)[C@@H]1C(C)(C)CC[C@@H]2O the Activity [1] was “Non-toxic”, the IC50 (PANC-1) was 17.7 µM and the Activity (MCF7 [2]) was “Active”. For the same compound, the Activity (MIA PaCa-2 [3]) was “Active”, the Activity (MIA PaCa-2 [4]) was “Active” and the Activity [5] was “Non-toxic”. The IC50 (MCF7 [6]) was 3.43 µM, the Activity (MIA PaCa-2 [7]) was “Active” and the Activity (MCF7 [8]) was “Active”. For the same compound, the Activity (MIA PaCa-2 [9]) was “Active”, the IC50 (A549) was 17.8 µM and the Activity (MCF7 [10]) was “Active”. The Activity (MCF7 [11]) was 57%, the Activity [12] was “Non-toxic” and the Activity (MCF7 [13]) was 11.5%. For the same compound, the inhibition (MIA PaCa-2 [14]) was “Active”, the Activity [15] was “Non-toxic” and the Activity (MCF7 [16]) was “Dose-dependent-effect”. For the same compound, the Activity (MIA PaCa-2 [17]) was “Active”, the Activity (MCF7 [18]) was “Active” and the Activity (MIA PaCa-2 [19]) was “Active”. The Activity (4T1) was “Active”, the Activity (MCF7 [20]) was 14% and the Activity (MCF7 [21]) was “Active”. The Activity (MIA PaCa-2 [22]) was “Dose-dependent-effect”, the Activity (MIA PaCa-2 [23]) was 56.8% and the inhibition (MIA PaCa-2 [24]) was “Active”. The IC50 (MIA PaCa-2 [25]) was 2140 nM, the inhibition (MIA PaCa-2 [26]) was “Active” and the Activity (MCF7 [27]) was 37%. The Activity [28] was “Non-toxic”, the inhibition (MCF7 [29]) was “Dose-dependent-effect” and the Activity (MIA PaCa-2 [30]) was 46.9%. For the same compound, the Activity [31] was “Non-toxic” and the inhibition (MIA PaCa-2 [32]) was “Active”.
